Reference: article PMC11513893, “Discovery of Oral Degraders of the ROS1 Fusion Protein with Potent Activity against Secondary Resistance Mutations” (Journal of Medicinal Chemistry, 2024)

Columns and labels:
[1] = test system: Ba/F3 ROS1 (SLC34A2) G2032R; test: Antiproliferation assay; format: cell-based; conditions: Mus musculus, BaF3; Ba/F3 cell line
Description: (§1) Ba/F3 immortalized murine bone marrow–derived pro-B cells were obtained from Creative Biogene (Shirley, NY) and cultured in RPMI supplemented with 10% FBS and IL3 (0.5 ng/mL). Ba/F3 cells expressing ROS1 variants were maintained in RPMI supplemented with 10% FBS and puromycin (0.7 mg/mL). […] Each compound was dissolved in DMSO and serially diluted in RPMI for cell culture experiments.
(§2) To assess the 72 h effect of drug treatment on cell proliferation, 2000 to 3000 cells were plated in replicates of three in 96-well plates. The plates were placed in an incubator at 37 °C, 5% CO2 for 72 h. Following drug treatments, the cells were incubated with the Alamar Blue Assay reagent (BioRad), 5 μL each well for 4 h at 37 °C and 5% CO2. Luminescence was measured on a multiplate reader and analyzed. […] IC50 values were determined using a nonlinear regression model with a sigmoidal dose response in GraphPad. The data were collected based on triplicate experiments, and presented as mean ± SD.

[2] = test system: Ba/F3 ROS1 (SLC34A2) L2026M; test: Antiproliferation assay; format: cell-based; conditions: Mus musculus, BaF3; Ba/F3 cell line
Description: as §1, §2

[3] = test system: Ba/F3 ROS1 (SLC34A2) G2032R-F2075 V; test: Antiproliferation assay; format: cell-based; conditions: Mus musculus, BaF3; Ba/F3 cell line
Description: as §1, §2

[4] = test system: Ba/F3 ROS1 (SLC34A2) D2033N; test: Antiproliferation assay; format: cell-based; conditions: Mus musculus, BaF3; Ba/F3 cell line
Description: as §1, §2

[5] = test system: Ba/F3 ROS1 L2086F; test: Antiproliferation assay; format: cell-based; conditions: Mus musculus, BaF3; Ba/F3 cells, cell growth inhibition
Excerpt: To assess targeted degradation of ROS1 fusion proteins, we first established a mouse pro-B cell line Ba/F3 as a model expressing the CD74-ROS1 oncogene or CD74-ROS1 with clinically observed secondary/tertiary mutations. The Ba/F3 cell line is dependent on interleukin-3 for survival and proliferation. Upon transduction of oncogenic ROS1, Ba/F3 cells become independent of interleukin-3 but dependent on the transduced driver gene. The Ba/F3 models have been effectively employed in the discovery and preclinical development of next generation ROS1 inhibitors.[11],[14],[15] We have tested ROS1 inhibitors against these Ba/F3 cells to validate their sensitivity and resistance to ROS1 inhibition.
(§3) Ba/F3 immortalized murine bone marrow–derived pro-B cells were obtained from Creative Biogene (Shirley, NY) and cultured in RPMI supplemented with 10% FBS and IL3 (0.5 ng/mL). Ba/F3 cells expressing ROS1 variants were maintained in RPMI supplemented with 10% FBS and puromycin (0.7 mg/mL). Crizotinib, ceritinib, brigatinib, repotrectinib, and lorlatinib were purchased from MedChem Express. Each compound was dissolved in DMSO and serially diluted in RPMI for cell culture experiments.
as §2
(§4) cDNA encoding CD74-ROS1 or mutant CD74–ROS1 was cloned into retroviral expression vectors (pLenti), and viruses were generated in HEK293T cells by transfecting with packaging plasmids. The resulting virus was used to infect Ba/F3 cells. After retroviral infection, Ba/F3 cells were selected by incubation with puromycin (0.7 mg/mL) for 2 weeks. For Ba/F3 cells infected by the CD74–ROS1 variants, IL3 was withdrawn from the culture medium at least 2 weeks before the experiments.

[6] = test system: Ba/F3 ROS1 (SLC34A2) F2075C-G1837E; test: Antiproliferation assay; format: cell-based; conditions: Mus musculus, BaF3; Ba/F3 cell line
Description: as §3, §2

[7] = test system: Ba/F3 ROS1 (SLC34A2) G2032R-D2113G; test: Antiproliferation assay; format: cell-based; conditions: Mus musculus, BaF3; Ba/F3 cell line
Description: as §3, §2

[8] = test system: Ba/F3 ROS1 (SLC34A2) G2032R-F2075C; test: Antiproliferation assay; format: cell-based; conditions: Mus musculus, BaF3; Ba/F3 cell line
Description: as §3, §2

[9] = test system: Ba/F3 ROS1 G2032R-F2075V; test: Antiproliferation assay; format: cell-based; conditions: Mus musculus, BaF3; Ba/F3 cells, cell growth inhibition
Excerpt: (§5) To assess targeted degradation of ROS1 fusion proteins, we first established a mouse pro-B cell line Ba/F3 as a model expressing the CD74-ROS1 oncogene or CD74-ROS1 with clinically observed secondary/tertiary mutations. The Ba/F3 cell line is dependent on interleukin-3 for survival and proliferation. Upon transduction of oncogenic ROS1, Ba/F3 cells become independent of interleukin-3 but dependent on the transduced driver gene.
as §1, §2
(§6) The resulting virus was used to infect Ba/F3 cells. After retroviral infection, Ba/F3 cells were selected by incubation with puromycin (0.7 mg/mL) for 2 weeks. For Ba/F3 cells infected by the CD74–ROS1 variants, IL3 was withdrawn from the culture medium at least 2 weeks before the experiments.

[10] = test system: Ba/F3 ROS1 L2026M; test: Antiproliferation assay; format: cell-based; conditions: Mus musculus, BaF3; Ba/F3 cells, cell growth inhibition
Excerpt: as §5, §1, §2, §6

[11] = test system: Ba/F3 ROS1 D2033N; test: Antiproliferation assay; format: cell-based; conditions: Mus musculus, BaF3; Ba/F3 cells, cell growth inhibition
Excerpt: as §5, §1, §2, §6

[12] = test system: Ba/F3 ROS1 (CD74) G2032R; test: Antiproliferation assay; format: cell-based; conditions: Mus musculus, BaF3; Ba/F3 cell line
Description: as §3, §2, §4

[13] = test system: Ba/F3 ROS1 (CD74) S1986F-G2032R; test: Antiproliferation assay; format: cell-based; conditions: Mus musculus, BaF3; Ba/F3 cell line
Description: as §3, §2, §4

[14] = test system: Ba/F3 ROS1 (CD74) G2032R-L2086F; test: Antiproliferation assay; format: cell-based; conditions: Mus musculus, BaF3; Ba/F3 cell line
Description: as §3, §2, §4

[15] = test system: Ba/F3 ROS1 (CD74) L2086F; test: Antiproliferation assay; format: cell-based; conditions: Mus musculus, BaF3; Ba/F3 cell line
Description: as §3, §2, §4

[16] = test system: Ba/F3 ROS1 (CD74) S1986F-G2032R-L2086F; test: Antiproliferation assay; format: cell-based; conditions: Mus musculus, BaF3; Ba/F3 cell line
Description: as §3, §2, §4

[17] = test system: Ba/F3 ROS1 (CD74) S1986F-L2086F; test: Antiproliferation assay; format: cell-based; conditions: Mus musculus, BaF3; Ba/F3 cell line
Description: as §3, §2, §4

[18] = test system: Ba/F3 ROS1-G2032R; test: Antiproliferation assay; format: cell-based, mouse; conditions: Mus musculus, BaF3; Ba/F3 cells, cell growth inhibition, 72 h
[19] = test system: Ba/F3 CD74-ROS1 non mutant; test: Antiproliferation assay (Alamar Blue, 72 h); format: cell-based, mouse; conditions: Mus musculus, BaF3, 72 h, Ba/F3 cells, cell growth inhibition
[20] = test system: Ba/F3 cell lines engineered to express the oncogenic ROS1 rearrangement; conditions: cited from earlier work
[21] = parameters: method as in PMID 30980071; conditions: patients; cited from earlier work
[22] = test system: Ba/F3 SLC34A2-ROS1 G2032R xenograft tumors; test: Mouse efficacy study, Ba/F3 SLC34A2-ROS1 G2032R xenograft; format: in vivo; conditions: NOD/SCID mice, 30 mg/kg PO qd
Description: (§7) All the procedures related to animal handling, care, and treatment in this study were performed according to guidelines approved by the Institutional Animal Care and Use Committee (IACUC) of Xavier University of Louisiana following the guidance of the AAALAC. Ba/F3-ROS1 and Ba/F3-ROS1-G2032R cells were maintained in RPMI 1640 medium supplemented with 10% fetal bovine serum. The cells growing in an exponential growth phase were harvested and counted for tumor inoculation. Female NOD/SCID mice 6–8 weeks of age were allowed to adapt to laboratory conditions for 10 days prior to dosing and were allowed food and water ad libitum. Each mouse was inoculated subcutaneously in the right flank with Ba/F3 CD74-ROS1 or Ba/F3 SL34A2-ROS1 G2032R cells (1 × 10^6) in 0.2 mL of PBS mixed with Matrigel (50:50) for tumor development.

[23] = test system: Ba/F3 CD74-ROS1 WT xenograft tumors; test: Mouse efficacy study, Ba/F3 CD74-ROS1 xenograft; format: in vivo; conditions: NOD/SCID mice, 30 mg/kg PO qd
Description: as §7

[24] = test system: Ba/F3 ROS1 (SLC34A2) V2098I; test: Antiproliferation assay; format: cell-based; conditions: Mus musculus, BaF3; Ba/F3 cell line
Description: as §1, §2

Row | SMILES | IC50 [1] [nM] | IC50 [2] [nM] | IC50 [3] [nM] | IC50 [4] [nM] | IC50 [5] [nM] | IC50 [6] [nM] | IC50 [7] [nM] | IC50 [8] [nM] | IC50 [9] [nM] | IC50 [10] [nM] | IC50 [11] [nM] | IC50 [12] [nM] | IC50 [13] [nM] | IC50 [14] [nM] | IC50 [15] [nM] | IC50 [16] [nM] | IC50 [17] [nM] | IC50 [18] [nM] | other results
1 | COc1cc(N2CCC(N3CCN(C)CC3)CC2)ccc1Nc1ncc(Cl)c(Nc2ccccc2P(C)(C)=O)n1 [brigatinib] | 490 ± 38.4 | 47.8 ± 10.2 | 327 ± 44.8 | 114 ± 25.3 | 172 ± 24 | 8.1 ± 2.2 | 215 ± 50.3 | 869 ± 148 | 327 ± 43 | 48 ± 4 | 114 ± 17 | 513 ± 118 | 488 ± 96.8 | 694 ± 204 | 172 ± 47.6 | > 2000 | 329 ± 85.5 | 265 ± 73 | –
2 | Cc1cc(Nc2ncc(Cl)c(Nc3ccccc3S(=O)(=O)C(C)C)n2)c(OC(C)C)cc1C1CCNCC1 [ceritinib] | – | – | – | – | 215 ± 33 | – | – | – | > 2000 | 43 ± 5 | 135 ± 27 | – | – | – | – | – | – | 821 ± 148 | IC50 [19]: 14.5 ± 2.2 nM; IC50 [20]: 180 nM
3 | C[C@@H](Oc1cc(-c2cnn(C3CCNCC3)c2)cnc1N)c1c(Cl)ccc(F)c1Cl [crizotinib] | – | – | – | – | 745 ± 88 | – | – | – | > 2000 | – | 187 ± 39 | – | – | – | – | – | – | > 2000 | objective response rate [21]: 72%; progression-free survival [21]: 19.2 months; TGI (tumor growth inhibition) [22]: 7%; TGI (tumor growth inhibition) [23]: 35%
4 | C[C@H]1Oc2cc(cnc2N)-c2c(nn(C)c2C#N)CN(C)C(=O)c2ccc(F)cc21 [lorlatinib] | 244 ± 35.3 | 1.1 ± 0.2 | 341 ± 75.5 | 7.6 ± 0.5 | > 2000 | 0.1 ± 0.1 | 142 ± 25.1 | > 2000 | 233 ± 31 | 1 ± 0.4 | 7.6 ± 1.3 | 385 ± 76 | 503 ± 77.4 | > 2000 | > 2000 | > 2000 | > 2000 | 338 ± 55 | IC50 [24]: 1.5 ± 0.4 nM
